This note sets out measurements from patent US10669269B2, “Substituted N-(1H-indazol-4-yl)imidazo[1,2-a]pyridine-3-carboxamide compounds as type III receptor tyrosine kinase inhibitors” (ARRAY BIOPHARMA INC., priority 2010, dated 2020).

Where a name gives a salt, the structure may show the parent alone.

In experiment [1] the target is T1, PDGFR beta (Homo sapiens, UniProt P09619).
T1 construct: endogenous in cells; host or cells: HS27 human fibroblast cell line
Kind of experiment: Phospho PDGFR LICOR Cell Assay (Example B). Particulars: averaged IC50; PDGFR beta phosphorylation in HS27 human fibroblast cell line, PDGF-BB stimulation 10 minutes, normalized to total ERK. In kind it is cell-based. As for the experimental part: Compounds were screened for inhibition of PDGFR beta phosphorylation in the HS27 human fibroblast cell line. Cells were seeded into a 96 well tissue culture plate, then incubated overnight in a 37° C./5% CO2 incubator. The following day, cells were treated for one hour with test compound dilutions. After stimulation with PDGF-BB ligand for 10 minutes, cells were washed with PBS and fixed in 3.7% formaldehyde in PBS for 10 minutes. This was followed by washing in PBS/0.2% Triton X-100 and permeabilizing in 100% MeOH for 10 minutes. Cells were incubated in blocking buffer for 1 hour. Antibodies to phosphorylated PDGFRβ and total ERK were added to the cells and incubated for 3 hours. After washing with PBS/0.2% Triton X-100, the cells were incubated with fluorescently-labeled secondary antibodies for an additional hour. Cells were then washed with PBS and analyzed for fluorescence at both wavelengths using the Odyssey Infrared Imaging System (LI-COR Biosciences). Phosphorylated PDGFR signal was normalized to total ERK signal. A standard 4-parameter logistic model was fit to the inhibitor dose response curves, with the IC50 being defined as the concentration of inhibitor giving 50 percent of control (POC).

Experiment [2] has as its target T2, cFMS (Homo sapiens, UniProt P07333).
T2 construct: THP-1 cells (human acute monocytic leukemia cell line) were serum-starved for 4 hours; endogenous in cells; host or cells: THP-1 cells (human acute monocytic leukemia cell line)
Kind of experiment: cFMS Cell-Based Assay (Example C). Particulars: averaged IC50; phospho-cFMS in THP-1 cells stimulated with 250 ng/mL recombinant human MCSF; read-out: cFMS Cell ELISA IC50. As for the experimental part: The ability of compounds of Formula I to inhibit cFMS activation in cells was determined by the following assay. THP-1 cells (human acute monocytic leukemia cell line) were serum-starved for 4 hours prior to treatment with compounds of Formula I for 1 hour. The concentration of compounds of Formula I was varied over a 9-point, 3-fold dilution series with 5,000 nM typically being the highest dose. Cell culture and treatment were carried out in a humidified 37° C., 5% CO2 incubator. Treated cells were stimulated with 250 ng/mL recombinant human MCSF for 1 minute to induce activation of cFMS. Cells were lysed in a manner which preserves phosphoproteins, and the lysate was analyzed by ELISA (R&D Systems, Human Phospho-M-CSF R DuoSet IC DYC3268), in which total cFMS protein in the lysate is captured and phosphotyrosine residues of cFMS are detected. A standard curve, made using purified phospho-M-CSF R protein, was used to quantify phospho-c-FMS in compound-treated wells. A standard 4-parameter logistic model was fit to the inhibitor dose response curves, with the IC50 being defined as the concentration of inhibitor giving 50 percent of control (POC).
(In an ELISA, binding on a coated surface is turned into a signal by an enzyme label.)

Experiment [3] deals with T3, c-KIT (Homo sapiens, UniProt P10721).
T3 construct: M-07e cells (human acute megakaryoblastic leukemia cell line) were serum-starved for 4 hours; endogenous in cells; host or cells: M-07e cells (human acute megakaryoblastic leukemia cell line)
T3 sequence (P10721 26-976): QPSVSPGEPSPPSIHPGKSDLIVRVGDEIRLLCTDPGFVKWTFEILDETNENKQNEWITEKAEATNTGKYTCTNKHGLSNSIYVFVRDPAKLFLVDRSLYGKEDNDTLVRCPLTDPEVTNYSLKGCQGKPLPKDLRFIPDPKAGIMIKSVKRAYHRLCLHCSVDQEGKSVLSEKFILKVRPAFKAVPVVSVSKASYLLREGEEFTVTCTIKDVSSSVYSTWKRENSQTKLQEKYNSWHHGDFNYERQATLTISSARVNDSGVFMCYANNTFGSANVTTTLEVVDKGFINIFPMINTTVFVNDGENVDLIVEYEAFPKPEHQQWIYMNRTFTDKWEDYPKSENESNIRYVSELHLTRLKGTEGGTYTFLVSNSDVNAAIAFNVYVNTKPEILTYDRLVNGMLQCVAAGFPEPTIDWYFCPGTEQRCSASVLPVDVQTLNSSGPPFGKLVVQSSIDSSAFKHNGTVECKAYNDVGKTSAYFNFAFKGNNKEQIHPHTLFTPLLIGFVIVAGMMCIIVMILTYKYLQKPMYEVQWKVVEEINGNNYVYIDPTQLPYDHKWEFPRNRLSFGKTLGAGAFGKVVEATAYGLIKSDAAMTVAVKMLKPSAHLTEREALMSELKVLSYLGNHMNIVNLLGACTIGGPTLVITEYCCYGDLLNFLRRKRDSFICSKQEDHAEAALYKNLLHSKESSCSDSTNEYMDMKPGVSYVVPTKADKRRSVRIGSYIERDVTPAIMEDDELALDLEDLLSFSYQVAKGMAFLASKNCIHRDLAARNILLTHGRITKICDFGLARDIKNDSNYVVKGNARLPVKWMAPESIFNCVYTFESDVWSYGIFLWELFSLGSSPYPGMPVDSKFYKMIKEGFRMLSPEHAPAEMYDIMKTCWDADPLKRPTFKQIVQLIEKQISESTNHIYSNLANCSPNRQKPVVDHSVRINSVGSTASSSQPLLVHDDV
Kind of experiment: c-KIT Cell-Based Assay (Example D). To be noted: averaged IC50; phospho-c-KIT in M-07e cells stimulated with 150 ng/ml recombinant human SCF; read-out: cKIT Cell ELISA IC50. The procedure: The ability of compounds of Formula I to inhibit c-KIT activation in cells was determined by the following assay. M-07e cells (human acute megakaryoblastic leukemia cell line) were serum-starved for 4 hours prior to treatment with compounds of Formula I for 1 hour. The concentration of compounds of Formula I was varied over a 9-point, 3-fold dilution series with 5,000 nM typically being the highest dose. Cell culture and treatment were carried out in a humidified 37° C., 5% CO2 incubator. Treated cells were stimulated with 150 ng/ml recombinant human SCF for 4 minutes to induce activation of c-KIT. Cells were lysed in a manner which preserves phosphoproteins, and the lysate was analyzed by ELISA (R&D Systems, Human Phospho-SCF R DuoSet IC DYC3527), in which total c-KIT protein in the lysate is captured and phosphotyrosine residues of c-Kit are detected. A standard curve, made using purified phospho-SCF R protein, was used to quantify phospho-c-KIT in compound-treated wells. A standard 4-parameter logistic model was fit to the inhibitor dose response curves, with the IC50 being defined as the concentration of inhibitor giving 50 percent of control (POC).

T1 sequence (P09619 33-1106): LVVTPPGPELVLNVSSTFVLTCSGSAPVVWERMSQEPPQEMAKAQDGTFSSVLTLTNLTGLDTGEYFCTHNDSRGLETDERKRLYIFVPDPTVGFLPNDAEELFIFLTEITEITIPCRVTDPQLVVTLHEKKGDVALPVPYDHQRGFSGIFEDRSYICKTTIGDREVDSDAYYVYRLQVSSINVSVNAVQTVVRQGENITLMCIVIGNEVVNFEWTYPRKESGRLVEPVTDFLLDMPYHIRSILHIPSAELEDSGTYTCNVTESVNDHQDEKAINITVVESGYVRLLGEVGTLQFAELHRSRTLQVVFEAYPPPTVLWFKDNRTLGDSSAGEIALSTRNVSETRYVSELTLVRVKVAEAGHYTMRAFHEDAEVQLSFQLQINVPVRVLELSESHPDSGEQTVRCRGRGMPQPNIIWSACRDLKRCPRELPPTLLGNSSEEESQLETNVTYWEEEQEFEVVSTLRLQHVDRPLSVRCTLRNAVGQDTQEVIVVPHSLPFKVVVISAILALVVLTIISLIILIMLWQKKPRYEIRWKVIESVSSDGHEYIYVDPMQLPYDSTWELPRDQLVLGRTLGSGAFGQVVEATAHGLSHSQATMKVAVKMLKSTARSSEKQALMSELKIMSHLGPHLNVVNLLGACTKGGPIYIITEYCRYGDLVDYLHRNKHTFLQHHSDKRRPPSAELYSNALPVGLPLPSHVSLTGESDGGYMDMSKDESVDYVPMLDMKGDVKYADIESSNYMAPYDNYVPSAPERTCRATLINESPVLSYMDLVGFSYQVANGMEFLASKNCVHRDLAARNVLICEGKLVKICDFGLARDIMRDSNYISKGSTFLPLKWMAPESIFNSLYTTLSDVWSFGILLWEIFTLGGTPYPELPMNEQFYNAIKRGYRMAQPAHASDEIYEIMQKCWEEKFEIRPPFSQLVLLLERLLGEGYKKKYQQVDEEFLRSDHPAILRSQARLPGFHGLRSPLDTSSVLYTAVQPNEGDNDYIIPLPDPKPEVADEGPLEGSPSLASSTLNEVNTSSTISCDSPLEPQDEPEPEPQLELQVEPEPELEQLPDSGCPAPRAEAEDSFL
T2 sequence (P07333 20-972): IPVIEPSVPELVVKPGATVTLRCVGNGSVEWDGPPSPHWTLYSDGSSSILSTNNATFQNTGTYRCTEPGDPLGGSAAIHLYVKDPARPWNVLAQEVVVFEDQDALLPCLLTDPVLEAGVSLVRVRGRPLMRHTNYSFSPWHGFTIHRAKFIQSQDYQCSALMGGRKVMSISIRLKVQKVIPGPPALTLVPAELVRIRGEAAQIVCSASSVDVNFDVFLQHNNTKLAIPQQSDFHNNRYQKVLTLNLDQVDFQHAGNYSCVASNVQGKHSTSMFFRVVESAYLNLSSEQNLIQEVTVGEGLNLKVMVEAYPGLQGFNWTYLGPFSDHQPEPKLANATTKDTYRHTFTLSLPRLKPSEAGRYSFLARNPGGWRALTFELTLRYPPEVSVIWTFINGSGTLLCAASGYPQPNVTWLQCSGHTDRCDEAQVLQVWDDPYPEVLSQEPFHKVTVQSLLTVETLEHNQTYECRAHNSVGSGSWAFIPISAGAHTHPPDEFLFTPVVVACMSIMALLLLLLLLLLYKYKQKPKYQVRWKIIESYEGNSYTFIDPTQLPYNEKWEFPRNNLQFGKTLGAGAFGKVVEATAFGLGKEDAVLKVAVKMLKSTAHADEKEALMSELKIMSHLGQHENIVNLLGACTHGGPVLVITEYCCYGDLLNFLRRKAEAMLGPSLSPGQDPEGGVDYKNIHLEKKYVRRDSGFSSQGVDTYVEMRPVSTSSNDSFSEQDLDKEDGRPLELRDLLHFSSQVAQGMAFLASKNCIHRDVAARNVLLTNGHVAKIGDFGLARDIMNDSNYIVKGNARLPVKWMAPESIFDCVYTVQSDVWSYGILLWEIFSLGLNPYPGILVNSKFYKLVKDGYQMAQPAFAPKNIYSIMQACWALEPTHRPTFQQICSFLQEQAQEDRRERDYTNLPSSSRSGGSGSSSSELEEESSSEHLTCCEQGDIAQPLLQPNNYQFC

For `Cc1nn(Cc2cc(C)n(C(C)C)n2)c2cccc(NC(=O)c3cnc4cc(OCCN5CCN(C)[C@@H](C)C5)ccn34)c12` [Example 29, (S)-7-(2-(3,4-dimethylpiperazin-1-yl)ethoxy)-N-(1-((1-isopropyl-5-methyl-1H-pyrazol-3-yl)methyl)-3-methyl-1H-indazol-4-yl)imidazo[1,2-a]pyridine-3-carboxamide], the IC50 in experiment [1] was 44.1 nM; in experiment [2], 28.6 nM; in experiment [3], 162 nM.
The like results for `Cc1nn(Cc2ccn(C(C)C)n2)c2cccc(NC(=O)c3cnc4cc(OCCN5CCN(C)CC5)ccn34)c12` [Example 48, N-(1-((1-isopropyl-1H-pyrazol-3-yl)methyl)-3-methyl-1H-indazol-4-yl)-7-(2-(4-methylpiperazin-1-yl)ethoxy)imidazo[1,2-a]pyridine-3-carboxamide bis hydrochloride] were, in that order, 47.7 nM, 13.3 nM and 45.1 nM.
The like results for `Cc1nc(Cn2nc(C)c3c(NC(=O)c4cnc5cc(OCCN6CCN(C)CC6)ccn45)cccc32)cs1` [Example 88, N-(3-methyl-1-((2-methylthiazol-4-yl)methyl)-1H-indazol-4-yl)-7-(2-(4-methylpiperazin-1-yl)ethoxy)imidazo[1,2-a]pyridine-3-carboxamide] were, in that order, 180 nM, 15.6 nM and 510 nM.
The like results for `COCCOc1ccn2c(C(=O)Nc3cccc4c3cnn4Cc3cccc(C)c3)cnc2c1` [Example 143, 7-(2-methoxyethoxy)-N-(1-(3-methylbenzyl)-1H-indazol-4-yl)imidazo[1,2-a]pyridine-3-carboxamide] were, in that order, 12 nM, 4.8 nM and 58.9 nM.
With `Cc1nn(Cc2cc(C)n(C(C)C)n2)c2cccc(NC(=O)c3cnc4cc(OCCN5CCN(C)CC5)ccn34)c12` [Example 67, N-(1-((1-isopropyl-5-methyl-1H-pyrazol-3-yl)methyl)-3-methyl-1H-indazol-4-yl)-7-(2-(4-methylpiperazin-1-yl)ethoxy)imidazo[1,2-a]pyridine-3-carboxamide], the IC50 worked out at 10.3 nM in experiment [1], 10 nM in experiment [2] and 60.6 nM in experiment [3].
Taken in the same sequence, the figures for `COc1ccc2ncc(C(=O)Nc3cccc4c3cnn4Cc3ccccc3)n2c1` [Example 159, N-(1-benzyl-1H-indazol-4-yl)-6-methoxyimidazo[1,2-a]pyridine-3-carboxamide] were 64.3 nM, 26.6 nM and 9.8 nM.
With `CN1CCN(CCOc2ccn3c(C(=O)Nc4cccc5c4cnn5Cc4cccnc4)cnc3c2)CC1` [Example 102, 7-(2-(4-methylpiperazin-1-yl)ethoxy)-N-(1-(pyridin-3-ylmethyl)-1H-indazol-4-yl)imidazo[1,2-a]pyridine-3-carboxamide trihydrochloride], the IC50 in experiment [1] is 17.6 nM; in experiment [2], 26 nM; in experiment [3], 94.9 nM.
Taken in the same sequence, the figures for `COCCOc1ccn2c(C(=O)Nc3c(Br)ccc4c3cnn4Cc3ccccc3)cnc2c1` [Example 134, N-(1-Benzyl-5-bromo-1H-indazol-4-yl)-7-(2-methoxyethoxy)imidazo[1,2-a]pyridine-3-carboxamide] were 2.4 nM, 3.1 nM and 11 nM.
Take `O=C(Nc1cccc2c1cnn2Cc1ccccc1)c1cnc2ccccn12` [Example 126, N-(1-benzyl-1H-indazol-4-yl)imidazo[1,2-a]pyridine-3-carboxamide]: the values for the IC50 in experiment [1], in experiment [2] and in experiment [3] were 34.5 nM, 27.4 nM and 22.2 nM, respectively.
Taken in the same sequence, the figures for `COCCOc1ccn2c(C(=O)Nc3cccc4c3cnn4Cc3cccc(C(=O)OC)c3)cnc2c1` [Example 93, Methyl 3-((4-(7-(2-methoxyethoxy)imidazo[1,2-a]pyridine-3-carboxamido)-1H-indazol-1-yl)methyl)benzoate] were 6 nM, 842 nM and 6.4 nM.
Taken in the same sequence, the figures for `COCCOc1ccn2c(C(=O)Nc3cccc4c3cnn4Cc3cccc(C(N)=O)c3)cnc2c1` [Example 94, N-(1-(3-carbamoylbenzyl)-1H-indazol-4-yl)-7-(2-methoxyethoxy)imidazo[1,2-a]pyridine-3-carboxamide] were 65 nM, 46.9 nM and 94.8 nM.
In the case of `Cc1ccc(Cn2nc(C)c3c(NC(=O)c4cnc5ccccn45)cccc32)cn1` [Example 81, N-(3-methyl-1-((6-methylpyridin-3-yl)methyl)-1H-indazol-4-yl)imidazo[1,2-a]pyridine-3-carboxamide], the IC50 in experiment [1] stood at 6440 nM; in experiment [2], 136 nM; in experiment [3], 4440 nM.
Turning to `Cc1nn(Cc2cc(C)n(C(C)C)n2)c2cccc(NC(=O)c3cnc4cc(OCCN5C[C@@H](C)N(C)[C@@H](C)C5)ccn34)c12` [Example 9, N-(1-((1-isopropyl-5-methyl-1H-pyrazol-3-yl)methyl)-3-methyl-1H-indazol-4-yl)-7-(2-((3S,5R)-3,4,5-trimethylpiperazin-1-yl)ethoxy)imidazo[1,2-a]pyridine-3-carboxamide], the IC50 in experiment [1] came out at 166 nM; in experiment [2] it was 21.2 nM; in experiment [3], 143 nM.
As for `O=C(Nc1cccc2c1cnn2Cc1ccccc1)c1cnc2cc(OCCN3CCOCC3)ccn12` [Example 90, N-(1-benzyl-1H-indazol-4-yl)-7-(2-morpholinoethoxy)imidazo[1,2-a]pyridine-3-carboxamide], the IC50 in experiment [1] is 5 nM; in experiment [2], 9.8 nM; in experiment [3], 25.8 nM.
Consider `COCCOc1ccn2c(C(=O)Nc3c(Cl)ccc4c3cnn4Cc3ccccc3)cnc2c1` [Example 137, N-(1-benzyl-5-chloro-1H-indazol-4-yl)-7-(2-methoxyethoxy)imidazo[1,2-a]pyridine-3-carboxamide], for which the IC50 in experiment [1] turned out to be 2 nM; in experiment [2], 3.1 nM; in experiment [3] it was 3.1 nM.
As to `Cc1cccc(Cn2nc(C)c3c(NC(=O)c4cnc5cc(OCCN(C)C)ccn45)cccc32)n1` [Example 60, 7-(2-(dimethylamino)ethoxy)-N-(3-methyl-1-((6-methylpyridin-2-yl)methyl)-1H-indazol-4-yl)imidazo[1,2-a]pyridine-3-carboxamide], the IC50 in experiment [1] was 5000 nM; in experiment [2], 35.6 nM; in experiment [3] it was 4560 nM.
The like results for `CN1CCN(CCOc2ccn3c(C(=O)Nc4cccc5c4cnn5Cc4cccc(C#N)c4)cnc3c2)CC1` [Example 99, N-(1-(3-cyanobenzyl)-1H-indazol-4-yl)-7-(2-(4-methylpiperazin-1-yl)ethoxy)imidazo[1,2-a]pyridine-3-carboxamide] were, in that order, 6.4 nM, 5.6 nM and 11.4 nM.
The like results for `COC(=O)c1cccc(Cn2ncc3c(NC(=O)c4cnc5cc(OCCN6CCN(C)CC6)ccn45)cccc32)c1` [Example 96, Methyl 3-((4-(7-(2-(4-methylpiperazin-1-yl)ethoxy)imidazo[1,2-a]pyridine-3-carboxamido)-1H-indazol-1-yl)methyl)benzoate dihydrochloride] were, in that order, 14.6 nM, 115 nM and 3.8 nM.

The IC50 is the concentration needed to halve the response being measured.
